Reference: ChEMBL document CHEMBL4433214, “Investigation around the Oxadiazole Core in the Discovery of a New Chemotype of Potent and Selective FXR Antagonists” (ACS Med Chem Lett, 2019)
Converted amounts (≈) assume the structure as drawn. The source made the active and inactive calls. No cut-off for these calls is given here.

How the values were obtained:
[1] = biological target: T1, Bile acid receptor (Homo sapiens) (UniProt Q96RI1); experiment: Antagonist activity at human FXR in HepG2 cells assessed as reversal of CDCA-induced increase in SHP mRNA expression level at 0.1 to 1 uM dosed after 24 hrs starvation followed by CDCA addition and measured after 18 hrs by RT-PCR analysis
T1 sequence (whole entry): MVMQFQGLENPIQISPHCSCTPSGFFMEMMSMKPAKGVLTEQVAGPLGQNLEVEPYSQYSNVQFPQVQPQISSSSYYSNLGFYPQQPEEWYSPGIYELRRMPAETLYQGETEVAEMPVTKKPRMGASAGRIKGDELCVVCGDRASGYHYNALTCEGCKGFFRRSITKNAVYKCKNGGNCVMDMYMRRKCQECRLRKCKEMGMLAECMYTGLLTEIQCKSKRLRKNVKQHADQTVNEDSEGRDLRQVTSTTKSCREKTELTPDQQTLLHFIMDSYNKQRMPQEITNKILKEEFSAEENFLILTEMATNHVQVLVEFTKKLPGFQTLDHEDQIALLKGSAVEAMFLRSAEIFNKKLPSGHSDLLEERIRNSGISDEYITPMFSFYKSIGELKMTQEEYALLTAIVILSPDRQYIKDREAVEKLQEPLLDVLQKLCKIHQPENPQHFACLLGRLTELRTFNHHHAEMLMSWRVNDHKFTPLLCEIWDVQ

[2] = biological target: T1, Bile acid receptor (Homo sapiens); experiment: Transactivation of human FXR transfected in HepG2 cells at 10 uM by luciferase reporter assay; format: cell-based
[3] = biological target: T1, Bile acid receptor (Homo sapiens); experiment: Antagonist activity at human FXR in HepG2 cells assessed as reversal of CDCA-induced increase in PEPCK mRNA expression level at 0.1 to 1 uM dosed after 24 hrs starvation followed by CDCA addition and measured after 18 hrs by RT-PCR analysis
[4] = biological target: T1, Bile acid receptor (Homo sapiens); experiment: Antagonist activity at human FXR transfected in HepG2 cells assessed as inhibition of CDCA-induced receptor transactivation at 10 uM by luciferase reporter assay relative to control; format: cell-based; design: scale not given: the % may be the effect or the level left
[5] = biological target: T1, Bile acid receptor (Homo sapiens); experiment: Antagonist activity at human FXR in HepG2 cells assessed as reversal of CDCA-induced increase in […] mRNA expression level at 0.1 to 1 uM dosed after 24 hrs starvation followed by CDCA addition and measured after 18 hrs by RT-PCR analysis
[6] = Intrinsic clearance in rat liver microsomes at 1 uM incubated for 2 hrs by LC-MS/MS analysis; details: read-out: CLH
[7] = biological target: T2, Oxysterols receptor LXR-beta (Homo sapiens) (UniProt P55055); experiment: Antagonist activity at human LXRbeta transfected in HepG2 at 5 uM in presence of LXRbeta agonist GW3965 by luciferase reporter assay; format: cell-based
T2 sequence (whole entry): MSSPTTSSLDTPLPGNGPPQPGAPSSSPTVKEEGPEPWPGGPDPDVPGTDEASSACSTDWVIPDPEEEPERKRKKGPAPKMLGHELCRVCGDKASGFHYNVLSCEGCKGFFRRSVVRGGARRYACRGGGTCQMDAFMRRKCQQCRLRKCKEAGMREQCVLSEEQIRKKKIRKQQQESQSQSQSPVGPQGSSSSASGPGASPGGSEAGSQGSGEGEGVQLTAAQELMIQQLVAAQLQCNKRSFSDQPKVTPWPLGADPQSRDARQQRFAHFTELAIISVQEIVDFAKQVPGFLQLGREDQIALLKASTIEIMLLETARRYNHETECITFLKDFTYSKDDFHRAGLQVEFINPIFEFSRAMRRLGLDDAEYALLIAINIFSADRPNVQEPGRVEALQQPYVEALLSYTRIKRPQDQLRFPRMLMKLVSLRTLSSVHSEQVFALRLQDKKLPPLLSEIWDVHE

[8] = Aqueous solubility of compound in pH 7.4 PBS buffer incubated for 24 hrs under gently shaking condition by LC-MS/MS analysis; format: physicochemical
[9] = biological target: T3, Oxysterols receptor LXR-alpha (Homo sapiens) (UniProt Q13133); experiment: Agonist activity at human LXRalpha transfected in HepG2 at 10 uM by luciferase reporter assay; format: cell-based
T3 sequence (whole entry): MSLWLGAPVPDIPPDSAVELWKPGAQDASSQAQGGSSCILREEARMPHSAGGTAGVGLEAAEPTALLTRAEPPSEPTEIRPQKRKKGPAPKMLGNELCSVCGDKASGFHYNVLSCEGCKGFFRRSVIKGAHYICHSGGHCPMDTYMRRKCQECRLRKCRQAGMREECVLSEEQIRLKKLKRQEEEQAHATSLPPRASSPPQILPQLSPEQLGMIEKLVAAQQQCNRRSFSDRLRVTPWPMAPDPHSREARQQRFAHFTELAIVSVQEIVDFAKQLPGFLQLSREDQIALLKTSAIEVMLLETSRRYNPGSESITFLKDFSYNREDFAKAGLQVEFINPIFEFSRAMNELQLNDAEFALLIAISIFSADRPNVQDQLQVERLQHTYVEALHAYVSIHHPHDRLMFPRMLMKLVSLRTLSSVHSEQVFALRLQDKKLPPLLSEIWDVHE

[10] = biological target: T4, Peroxisome proliferator-activated receptor gamma (Homo sapiens) (UniProt P37231); experiment: Antagonist activity at human PPARgamma transfected in HepG2 at 5 uM in presence of PPARgamma agonist rosiglitazone by luciferase reporter assay; format: cell-based
T4 sequence (whole entry): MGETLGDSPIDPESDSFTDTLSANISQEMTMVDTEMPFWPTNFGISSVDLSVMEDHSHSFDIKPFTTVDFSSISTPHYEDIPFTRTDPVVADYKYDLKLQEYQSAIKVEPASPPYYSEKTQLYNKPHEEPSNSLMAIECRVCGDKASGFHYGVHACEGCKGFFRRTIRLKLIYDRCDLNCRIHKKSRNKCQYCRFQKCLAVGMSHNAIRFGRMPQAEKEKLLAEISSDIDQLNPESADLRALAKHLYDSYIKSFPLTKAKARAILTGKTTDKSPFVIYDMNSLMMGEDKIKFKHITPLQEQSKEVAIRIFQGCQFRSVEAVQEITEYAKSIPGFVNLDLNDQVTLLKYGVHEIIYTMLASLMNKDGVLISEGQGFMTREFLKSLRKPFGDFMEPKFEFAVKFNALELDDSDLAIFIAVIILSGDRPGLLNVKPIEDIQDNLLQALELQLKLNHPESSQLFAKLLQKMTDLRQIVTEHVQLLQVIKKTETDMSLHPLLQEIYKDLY

- Activity [1]: Active
- Activity [2]: inactive
- Activity [3]: Active
- Activity [4]: 80%
- Activity [5]: Active
- microsomal CLint at 1 µM [6]: 20.7 µL/min/mg
- Activity [7]: inactive
- solubility at 24 h [8]: 200 µM (≈ 55.9 µg/mL)
- Activity [9]: inactive
- Activity [10]: inactive
SMILES: c1ccc2cc(-c3noc(C4CCNCC4)n3)ccc2c1
